Here are results for seven compounds from patent US4315032A, “Process for preparation of adjacently disubstituted ketones” (Teitin Limited, priority 1979, dated 1982).

Read-outs that look alike come from different tables or passages of the source.

In assay [1] the test system is ulcer formation induced by indomethacin. As to the kind of experiment: inhibiting action on the formation of ulcer in rats induced by indomethacin. The assay is classed as in vivo, Male rats (Sprague Dawley species). The following applies: indomethacin 20 mg/kg peroral, compound 0.5 × 2 mg/kg, S.C.; for Inhibiting rate (%): inhibition of ulcer formation. As to the method: By the method of Y. H. Lee et al. [Arch. Int. Pharmacodyn. Ther., 192, 370 (1971)], the inhibiting action of the compound No. 122 in Example 11 and compound No. 158 in Example 21 on the formation of ulcer in rats induced by indomethacin, a typical non-steroid anti-inflammatory agent, was evaluated.
Male rats (Sprague Dawley species; body weight 240-270 g) were used in the experiment. These rats had been caused to fast for 24 hours in separate cages before the initiation of the experiment. Indomethacin was orally administered to these rats, and 6 hours later, they were killed. Formation of ulcer in the fundus part was examined by measuring the area of the ulcer-forming part under a microscope. The compounds Nos. 122 and 158 were each subcutaneously administered at the end of 30 minutes and 2 hours, respectively, after the administration of indomethacin. The ulcer formation inhibiting rate of these compounds against a predetermined dose of indomethacin was determined.
The indomethacin was administered as a 0.5 ml aqueous suspension (containing two drops of a Tween-type nonionic surfactant per 14 ml of water). The compounds Nos. 122 and 158 were given in the form of a solution in a phosphate buffer (pH 7.4).

The test system of assay [2] is platelet aggregation (rabbit PRP). As to the kind of experiment: Activity of Inhibiting Platelet Aggregation In Vitro (rabbit PRP, ADP). The assay is classed as cell-based. The following applies: ADP-disodium salt 5 μM final, 37° C., 2 min pre-incubation, minimum concentration whose inhibiting rate exceeded 50%. As to the method:
The platelet aggregation inhibiting activities of test compounds including 7-hydroxy PGE1 of this invention were tested using rabbit PRP. The results are shown in terms of their concentrations at 50% inhibition (IC50) of platelet aggregation. As an aggregating agent, ADP-disodiumsalt having a final concentration of 5 μM was used.
(1) Preparation of platelet-enriched plasma (PRP)
Citrated blood (consisting of 1 part by volume of […] sodium citrate and 9 parts by volume of the blood) was prepared by taking blood from the ear veins of male rabbits having a body weight of 2.0 to 3.0 kg (white ordinary species). The citrated blood was centrifuged at 100 G for 10 minutes at room temperature, and the supernatant (PRP) was separated.
The PRP obtained was stored at room temperature, and used as early as possible. PRP stored for more than 4 hours after preparation was not used.
(2) Preparation of test drugs
Each test drug was dissolved in ethyl alcohol to a concentration of 10 mg/ml or 1 mg/ml, and diluted with physiological saline to adjust its concentration.
(3) Preparation of the aggregating agent
ADP disodium salt (a product of Kyowa Hakko Kabushiki Kaisha) was dissolved in 0.1 M tris-HCl buffer (pH 7.8) to prepare a solution having a concentration of 50 μM (final concentration 5 μM).
(1) Degree of platelet aggregation in a blank
Physiological saline (25 μl) and 25 μl of the aggregating agent solution were added to 200 μl of PRP which had been warmed in a cuvette at 37° C. of an aggregometer to aggregate platelet. The aggregation curve was recorded for 3 minutes by an aggregometer (a product of Rika Denki Kabushiki Kaisha). The maximum degree of aggregation in this platelet aggregation was defined as the maximum degree of aggregation of the blank.
(2) Test for inhibition of platelet aggregation
The solution of test drug (25 μl) was added to 200 of PRP, and the mixture was pre-incubated for 2 minutes in a cuvette of an aggregometer. Then, 25 μl of the ADP disodium solution (50 μM) was added, and the aggregation curve was recorded for 3 minutes. The maximum degree of platelet aggregation within this period was measured, and the inhibiting rate was calculated from the following equation. The mimimum concentration (expressed as final concentration) of the drug whose inhibiting rate exceeded 50% was shown as an IC50 value. [formula]
For details of the in vitro platelet aggregation inhibiting test, see H. M. Davis, J. Phyllis, K. Paul and W. Terry: Thromb. Res. 11, 217-226 (1977) and R. E. Anderson and J. G. Foulks: Thromb. Haemos. 36, 343-359 (1976).

As to `CCCCCC(O)/C=C/C1C(O)CC(=O)C1C(O)CCCCCC(=O)OC` (stereo not drawn) [No. 122, 2-(1-hydroxy-7-keto-8-oxanonyl)-3-(3-hydroxy-1-trans-octenyl)-4-hydroxycyclopentanone], in assay [1], the “Ulcer formation (ulcer coefficient) Average value ± S.E.M.” value is 12.1 ± 4.1 and the “Inhibiting rate (%)” value was determined as 40.4%.
By IC50 is commonly meant the midpoint of a concentration-inhibition curve. Turning to `CCCCCC(O)/C=C/C1C(O)CC(=O)C1C(O)CCCCCC(=O)OC` (stereo not drawn) [No. 150, dl 2-(1-hydroxy-7-keto-8-oxanonyl)-3-(3-hydroxy-1-trans-octenyl)-4-hydroxycyclopentanone], the IC50 in assay [2] is > 10 µg/mL.
On to `CCCCC[C@H](O)/C=C/C1C(C(O)CCCCCC(=O)OC)C(=O)C[C@H]1O` (stereo partly drawn) [No. 156, 2-(1-hydroxy-7-keto-8-oxanonyl)-3-[3(S)-hydroxy-1-trans-octenyl]-4(R)-hydroxycyclopentanone], for which the IC50 in assay [2] (Oryctolagus cuniculus, Platelet, read-out: IC50) was determined as 26.3 µg/mL.
Take `CCCCCC(O)/C=C/C1C(O)CC(=O)C1C(O)CCCCCC(=O)OC` (stereo not drawn) [No. 148, dl 2-(1-hydroxy-7-keto-8-oxanonyl)-3-(3-hydroxy-1-trans-octenyl)-4-hydroxycyclopentanone]: in assay [2], the IC50 is > 10 µg/mL.
For the compound `CCCCC[C@H](O)/C=C/C1C(C(O)CCCCCC(=O)OC)C(=O)C[C@H]1O` (stereo partly drawn) [No. 158, 2-(1-hydroxy-7-keto-8-oxanonyl)-3-[3(S)-hydroxy-1-trans-octenyl]-4(R)-hydroxycyclopentanone], in assay [1], the “Ulcer formation (ulcer coefficient) Average value ± S.E.M.” value amounted to 15.8 ± 5.1 and the “Inhibiting rate (%)” value worked out at 22.2%. For the same compound, in assay [2], the IC50 was found to be 41.5 µg/mL.
On to `CCCCCC(O)/C=C/C1C(O)CC(=O)C1C(O)CCCCCC(=O)OC` (stereo not drawn) [No. 144, dl 2-(1-hydroxy-7-keto-8-oxanonyl)-3-(3-hydroxy-1-trans-octenyl)-4-hydroxycyclopentanone], for which the IC50 in assay [2] was > 10 µg/mL.
The same measure, in the same setting: next, `CCCCCC(O)/C=C/C1C(O)CC(=O)C1C(O)CCCCCC(=O)OC` (stereo not drawn) [No. 146, dl 2-(1-hydroxy-7-keto-8-oxanonyl)-3-(3-hydroxy-1-trans-octenyl)-4-hydroxycyclopentanone]: 24.5 µg/mL.
